Experimental data as given in US12728147B2, “Composition for preventing or treating inflammatory disease comprising hydrolysis extract of pulsatilla koreana and anemone raddeana as active ingredient” (priority 2020, dated 2026).
Like-named read-outs stand apart in the source and are kept apart here.

Assays:
[1] = test system: human umbilical vein endothelial cells (HUVECs); conditions: cited from earlier work
[2] = test system: rats with edema induced with carrageenan; format: in vivo; conditions: for Average edema reduction percent: average of the reduction percent values after 2, 3 and 4 hours
Procedure: Each experimental group was composed of three Wistar rats, and the edema was formed by subplantar injection of 0.1 ml of a 1% (w/v) lambda carrageenan solution to the left hind paw of the rats. By the same method, 0.1 ml of physiological saline was injected into the right hind paw. […] For the control, 2 ml of physiological saline was used. As for Comparative Example 1, the group was orally administered with 10 mg/kg indomethacin. The medicinal effect was assayed as percentage (%) by measuring the volume of edema from 2 hours to 4 hours in 1 hour units after carrageenan administration. [{1−S/C}×100] (S: edema volume in the preparation administration group, C: edema volume in the carrageenan administration group) The volume of edema was measured by water plethysmography. As for Preparation 16, the anti-inflammatory effect was observed by direct injection of […] into the point of carrageenan injection on the rats. This method was used considering that in the vertebral skeletal diseases, drugs are often directly injected into affected areas in clinical practice, and the method can also be applied to the herbal acupuncture in oriental medicine. In the present invention, 0.2 ml of Preparation 14 was selected and directly injected twice at an interval of 30 minutes to the point of carrageenan injection on the left hind paw of the rats (Comparative Example 6). That is, the injection was conducted at 150 minutes and 180 minutes after carrageenan injection, and the anti-inflammatory assay was conducted 240 minutes (4 hours after carrageenan injection). Comparative Example 2 was a Preparation of 1 mg of HcolA1 mixed with 1 mg of HcolA. The control was used for a physiological saline administration group.
The edema size reduction percent (%) was expressed as the ratio of the edema size by each preparation after each hour relative to the size of edema (control) by carrageenan injection after each hour as shown below, and the average reduction percent of edema was expressed as an average value of the reduction percent values of each preparation after 2, 3, or 4 hours. Edema size reduction percent (%)={1−(edema size by each preparation/edema size by control)}×100

[3] = test system: carrageenan-induced rat paw inflammation; conditions: literature report; cited from earlier work

In the case of COC1C(=O)Oc2ccccc2C1(COC(=O)C=C(C)C)OC (centres unmarked) [4-senecioyloxymethyl-3,4-dimethoxycoumarin], the “Inhibition of HUVEC angiogenesis” value ([1]; at 1 μg/ml) is listed as 53%.
In the case of COc1ccc2c(c1)c(CC(=O)O)c(C)n2C(=O)c1ccc(Cl)cc1 [Comparative Example 1, Indomethacin], the “Edema size reduction percent, 2 hours” value ([2]; 2 hours after carrageenan, relative to control) is reported as 0.012(63) %, the “Edema size reduction percent, 3 hours” value ([2]; 3 hours after carrageenan, relative to control) is reported as 0.043(64) % and the “Edema size reduction percent, 4 hours” value ([2]; 4 hours after carrageenan, relative to control (Comparative Example 6: direct injection into point of carrageenan injection)) is reported as 0.023(63) %. The “Edema size over time (hour) after treatment, 4 hours” value ([2]; 4 hours after carrageenan, 1 ml i.p. 1 h before edema induction (Comparative Example 1 oral; Comparative Example 6: 0.2 ml injected directly twice at 150 and 180 min), mean) was 0.321, the “Average edema reduction percent” value [2] was “(63.3) %” and the “Average edema reduction percent” value ([2]; listed as indomethacin) was 63.3%.
In the case of C[C@@H]1O[C@@H](O[C@H]2[C@H](O[C@H]3CC[C@]4(C)[C@H]5CC=C6[C@@H]7CC(C)(C)CC[C@]7(C(=O)O[C@@H]7O[C@H](CO[C@@H]8O[C@H](CO)[C@@H](O[C@@H]9O[C@@H](C)[C@H](O)[C@@H](O)[C@H]9O)[C@H](O)[C@H]8O)[C@@H](O)[C@H](O)[C@H]7O)CC[C@@]6(C)[C@]5(C)CC[C@H]4C3(C)C)OC[C@H](O[C@@H]3O[C@H](CO)[C@@H](O)[C@H](O)[C@H]3O)[C@@H]2O)[C@H](O)[C@H](O)[C@H]1O [HcolE, hederacolchiside E], the “Anti-inflammatory effect on carrageenan-induced rat paw inflammation” value [3] is given as “insignificant”.
In the case of C[C@@H]1O[C@@H](O[C@H]2[C@H](O[C@H]3CC[C@@]4(C)[C@@H](CC[C@]5(C)[C@@H]4CC=C4[C@@H]6CC(C)(C)CC[C@]6(C(=O)O[C@@H]6O[C@H](CO[C@@H]7O[C@H](CO)[C@@H](O[C@@H]8O[C@@H](C)[C@H](O)[C@@H](O)[C@H]8O)[C@H](O)[C@H]7O)[C@@H](O)[C@H](O)[C@H]6O)CC[C@]45C)[C@]3(C)CO)OC[C@H](O[C@@H]3O[C@H](CO)[C@@H](O)[C@H](O)[C@H]3O)[C@@H]2O)[C@H](O)[C@H](O)[C@H]1O [HcolF, hederacolchiside F], the “Anti-inflammatory effect on carrageenan-induced rat paw inflammation” value [3] is listed as “confirmed in a predetermined range”.
For CCC[C@H](CC/C=C/C=C/C#CC#C/C=C\CO)OC(C)=O [acetylbupleurotoxin], the “Inhibition of HUVEC angiogenesis” value ([1]; at a concentration of 30 μg/ml) is given as 100%.
For CCC[C@H](O)CC/C=C/C=C/C#CC#C/C=C\CO [bupleurotoxin], the “Inhibition of HUVEC angiogenesis” value ([1]; at a concentration of 30 μg/ml) is given as 100%.
For COc1cc([C@@H]2c3cc4c(cc3C[C@H]3COC(=O)[C@@H]32)OCO4)cc(OC)c1OC [deoxypodophyllotoxin], the “Inhibition of HUVEC angiogenesis” value ([1]; at a concentration of 3 ng/ml) is given as 100%.
In the case of C[C@@H]1O[C@@H](O[C@H]2[C@H](O[C@H]3CC[C@]4(C)[C@H]5CC=C6[C@@H]7CC(C)(C)CC[C@]7(C(=O)O)CC[C@@]6(C)[C@]5(C)CC[C@H]4C3(C)C)OC[C@H](O[C@@H]3O[C@H](CO)[C@@H](O)[C@H](O)[C@H]3O)[C@@H]2O)[C@H](O)[C@H](O)[C@H]1O [hederacolchiside A1], the “Inhibition of HUVEC angiogenesis” value ([1]; at a concentration of 2 μg/ml) is listed as 100%.
In the case of C[C@@H]1O[C@@H](O[C@H]2[C@H](O[C@H]3CC[C@@]4(C)[C@@H](CC[C@]5(C)[C@@H]4CC=C4[C@@H]6CC(C)(C)CC[C@]6(C(=O)O)CC[C@]45C)[C@]3(C)CO)OC[C@H](O[C@@H]3O[C@H](CO)[C@@H](O)[C@H](O)[C@H]3O)[C@@H]2O)[C@H](O)[C@H](O)[C@H]1O [hederacolchiside A], the “Inhibition of HUVEC angiogenesis” value ([1]; at a concentration of 2 μg/ml) is listed as “did not show such activity”.
